“And” between values parts separate entries of the source, which are not always exact repeats. Identical values can stand only once.
Key:
human neutrophils [1] = test: LTB4 release by neutrophils stimulated with opsonised zymosan (ELISA); type: cell-based
Description: (§1) The purpose of this study is the evaluation of the dry Embelia extract on the production of LTB4 (leucotriens B4) and PGE-2 (prostaglandin E-2) in human neutrophils. Venous blood from healthy donors was collected into tubes containing anticoagulant and sedimented with Dextran (Dextran T500). The supernatant was layered on Ficoll-Hypaque (density 1,077) and centrifuged at 400 g for 20 min. The cell pellet was washed in Tyrode (in mM: NaCl 137; KCl 2.6; glucose 5.6; HEPES 4.2; pH 7.4). Contaminating red blood corpuscules were lyzed. The cells were resuspended at 2.106 cells/ml in the Tyrode buffer supplemented with CaCl2 and MgCl2 (1.3 and 1 mM, respectively). Cells (2.106 cells/ml) were incubated at 37° C. in the presence or absence of the products to be tested during 15 min and then stimulated with opsonised zymosan (1 mg/ml) during 10 min. LTB4 assay was performed using a kit ELISA (Thermo Fisher ref. EHL LTB4). The quantity of LTB4 was expressed in pg/ml. PGE2 assay was performed using a kit ELISA (Assay designs ref 900-001 and SPIBIO ref 514010). The quantity of PGE2 was expressed in pg/ml. Data represent the means of values measured in one supernatant (non stimulated cells) or three supernatants (stimulated cells). Each measurement was assessed in duplicate. The means of the data were compared to the control condition (Student's t test-comparison of means—statistical significance at 95% if p<0.05* and at 99% if p<0.01**). The percentage of inhibition was calculated as follows: % inhibition=100×[(LTB4 treated with ECC (stimulated)/LTB4 control (stimulated)×100]

[2] = test system: sensory neurons from dorsal root ganglia; test: Viability (MTT) of sensory neurons; type: cell-based, newborn Wistar rat; settings: Capsazepine 30 μM
Description: A preliminary cytotoxicity test to select doses for further assay was performed with viability test (MMT assay).

[3] = test system: sensory neurons from dorsal root ganglia; test: Substance P release induced by capsaicin in sensory neurons (ELISA); type: cell-based, newborn Wistar rat
Description: (§2) FIG. 3: Evaluation by Elisa assay of substance P release. Protocol: in vitro test on sensory neurons, sensory neurons from dorsal root ganglia of newborn Wistar rat, pre-treatment with Embelia extract for 30 min, stimulation with capsaicin (0.3 μM) for 30 min, tested vs capsazepine (30 μM) as standard reference.
(§3) Test was performed with liquid Embelia extract according to example 1 to measure its activity on release of substance P or CGRP induced by capsaicin in sensory neurons models. Cells were isolated from dorsal root ganglia of newborn Wistar rat. Cells were cultured at 37° C., 5% CO2 and culture medium concerned DMEM-Ham F12 supplemented with N2 complement 1%, antibiotics, L-glutamine 2 mM, nerve growth factor beta 20 ng/ml, neutrophin 5 ng/ml.
(§4) Sensory neurons were then seeded in culture medium containing or not containing (control) the test compound or the reference (capsazepine at 30 μM) and cells were pre-incubated for 30 minutes. Cells were then stimulated or not stimulated (non-stimulation control) with capsaicin (a pungent and irritating agent from hot chili pepper) at 0.3 μM and incubated for 30 minutes. All experimental conditions were performed in n=3. At the end of incubation, the quantity of neuromediators (Substance P or CGRP) in culture supernatants was measured using respective ELISA kit according to the supplier's instructions. The inter-group comparisons were performed by Student's t-test for data management.
(§5) Results are expressed in % according to the following formulas: […]

[4] = test system: sensory neurons from dorsal root ganglia; test: CGRP release induced by capsaicin in sensory neurons (ELISA); type: cell-based, newborn Wistar rat
Description: as §2, with “FIG. 4:” for “FIG. 3:”, “of CGRP” for “of substance P”, “neurons, Sensory” for “neurons, sensory”
as §3, §4, §5

[5] = test system: mast cells (Peritoneal cells from Wistar rat including ~50% mast cells); test: Histamine release from mast cells after CP48/80-induced degranulation (ELISA); type: cell-based
Description: FIG. 2: Evaluation by Elisa assay of histamine release after induced mast cells degranulation. Protocol: in vitro test on mast murine cells, peritoneal cells from Wistar rat including ˜50% mast cells, re-treatment with Embelia extract for 15 min, stimulation with CP48/80 (10 μg/ml) for 20 min, tested vs cromoglycate (10 nM) as standard reference. Test was performed with liquid Embelia extract according to example 1 comprising 7.3% dry matter to measure its activity on degranulation of mast cells (Peritoneal cells from Wistar rat including ˜50% mast cells) stimulated with CP48/80. Effects on degranulation were evaluated by measuring histamine release after stimulation. Cells were cultured at 37° C., 5% CO2 and culture medium concerned EBSS supplemented with CaCl2 1.8 mM, MgCl2 0.8 mM and Bovine serum albumine (BSA) 0.1%. Mast cells were seeded in culture medium containing or not containing (control) the test compound or the reference (cromoglycate at 10 mM) and cells were pre-incubated for 20 minutes. Cells were then stimulated or not stimulated (non-stimulation control) with histamine release inducer CP48/80 at 10 μg/ml and incubated for 20 minutes. All experimental conditions were performed in n=3. At the end of incubation, the quantity of histamine in culture supernatants was measured using an ELISA kit according to the supplier's instructions. The inter-group comparisons were performed by Student's t-test for data management. Results are expressed in % according to the following formulas: [formula]

[6] = test system: human basophils (KU812 cell line); test: Histamine release from KU812 basophils after CP48/80-induced degranulation (ELISA); type: cell-based
Description: FIG. 1: Evaluation by Elisa assay of histamine release after induced basophils degranulation. Protocol: in vitro test on human basophils (KU812 cell line), pre-treatment with Embelia extract for 20 min, stimulation with CP48/80 (10 μg/ml) for 20 min, tested vs cromoglycate (10 nM) as standard reference. Test was performed on liquid Embelia extract according to example 1 to measure its activity on degranulation of human basophils (KU812 cell line) stimulated with CP48/80. Effects on degranulation were evaluated by measuring histamine release after stimulation. Cells were cultured at 37° C., 5% CO2 and culture medium concerned EBSS supplemented with CaCl2 1.8 mM, MgCl2 0.8 mM and Bovine serum albumine (BSA) 0.1%. KU812 cells were then seeded in culture medium containing or not (control) the test compound or the reference (cromoglycate at 10 mM) and cells were pre-incubated for 20 minutes. Cells were then stimulated or not (non-stimulated control) with histamine release inducer CP48/80 at 10 μg/ml and incubated for 20 minutes. All experimental conditions were performed in n=3. At the end of incubation, the quantity of histamine in culture supernatants was measured using an ELISA kit according to the supplier's instructions. The inter-group comparisons were performed by Student's t-test for data management. Results are expressed in % according to the following formulas: [formula] [formula]

human neutrophils [7] = test: PGE2 release by neutrophils stimulated with opsonised zymosan (ELISA); type: cell-based; settings: for PGE2: Indomethacin 1 μM
Description: as §1, with “p<0.01**).” for “p<0.01**). The percentage of inhibition was calculated as follows: % inhibition=100×[(LTB4 treated with ECC (stimulated)/LTB4 control (stimulated)×100]”

[8] = Capsazepine 30 μM, capsaicin (0.3 μM)
[9] = Rattus norvegicus, Neuron, Capsazepine 30 μM, capsaicin (0.3 μM)
[10] = individual values, Capsazepine 30 μM, capsaicin (0.3 μM)
[11] = Cromoglycate 10 mM, CP48/80 at 10 μg/ml

C[C@H]1[C@H](C)CC[C@]2(C)CC[C@]3(C)C(=CC[C@@H]4[C@@]5(C)CC[C@@H](O)[C@](C)(C(=O)O)[C@@H]5CC[C@]43C)[C@H]12 [Boswellic acid]
inhibition at 10 µg/mL (human neutrophils [1]; Homo sapiens, Neutrophil, Boswellic acid 10 μg/ml, positive control): 45%

Oc1cc2c(cc1O)CN(C(=S)NCCc1ccc(Cl)cc1)CCC2 [Capsazepine]
Viability (MTT) % Stimulated Control ([2]; Table 6 (substance P experiment)): 96% | Viability (MTT) Stimulated Control (%) ([2]; Table 7 (CGRP experiment)): 114% | % Stimulated Control (%) [3, 8]: 9% | Mean Substance P [3, 8]: 23 pg/mL | inhibition at 30 µM [3, 9]: 99% | effect on capsaicin-stimulated substance P release ([3]; capsazepine 30 μM): significantly inhibited this effect | Substance P [3, 10]: 23 pg/mL | Mean CGRP [4, 8]: 642 pg/mL | Stimulated Control (%) [4, 8]: 39% | inhibition at 30 µM [4, 9]: 64% | effect on capsaicin-stimulated CGRP release ([4]; capsazepine 30 μM): significantly inhibited this effect | CGRP [4, 10]: 671 pg/mL and 698 pg/mL and 557 pg/mL

O=C(O)c1cc(=O)c2c(OCC(O)COc3cccc4oc(C(=O)O)cc(=O)c34)cccc2o1 [Cromoglycate]
Inhibition (%) [5, 11]: 81% | Mean Histamine [5, 11]: 11.7 µM | Stimulated Control (%) [5, 11]: 20% | effect on CP48/80-stimulated histamine release ([5]; cromoglycate 10 mM): significantly inhibited this effect | Inhibition (%) [6, 11]: 42% | Mean Histamine [6, 11]: 29.5 nM | Stimulated Control (%) [6, 11]: 71% | effect on CP48/80-stimulated histamine release ([6]; cromoglycate 10 mM): significantly inhibited this effect | Histamine ([6]; individual values, Cromoglycate 10 mM, CP48/80 at 10 μg/ml): 32.3 nM and 27.0 nM and 29.0 nM

COc1ccc2c(c1)c(CC(=O)O)c(C)n2C(=O)c1ccc(Cl)cc1 [Indomethacin]
inhibition of PGE2 release (human neutrophils [7]; Indometacin 1 μM, positive control): 51% | PGE2 (human neutrophils [7]; (NS) not stimulated): 60 pg/mL | PGE2 (human neutrophils [7]; (S) stimulated with opsonised zymosan): 77.0 pg/mL

Cc1ncc([N+](=O)[O-])n1CCO [Metronidazole]
inhibition at 5 µg/mL (human neutrophils [1]; Homo sapiens, Neutrophil, metronidazole 5 μg/ml, positive control): 100% | LTB4 (human neutrophils [1]; Metronidazole (10 μg/ml), (S) stimulated with opsonised zymosan): 530 pg/mL

Reference: US9498505B2, “Embelia concinna extract comprising flavonoids in cosmetic and pharmaceutical compositions” (BAYER CONSUMER CARE AG, priority 2012, dated 2016)
